Reference: patent EP4722207A1, “OXOISOINDOLINYL-SUBSTITUTED TETRAHYDROPYRIMIDINEDIONE DERIVATIVE AND USE THEREOF” (Gluetacs Therapeutics (Shanghai) Co., Ltd., priority 2023, dated 2024)

Legend:
Jurkat = experiment: Cell viability assay (CellTiter-Meiluncell Luminescent), tumor cell proliferation, Jurkat; conditions: Homo sapiens, 96 h, read-out: inhibitory activity (IC50, nM) against tumor cells proliferation, Jurkat
Procedure: On the following day, the test compounds of the present disclosure were subjected to serial dilution. […] Subsequently, 0.5 µL of the test compound dilution was transferred into the 96-well plate containing the cells, with each well containing 100 µL of cell culture medium. […] Into the 96-well plate, the diluted test compounds and corresponding detection reagents were added, resulting in final test compound concentrations of 500 nM and 10 nM, respectively.
After the cells were treated with the compounds of the present disclosure for a specified period, the cell viability assay reagent was added to the culture medium according to the kit's instructions to determine cell viability. […] All controls were treated using the same procedure as the compounds of the present disclosure. The growth inhibition curves for the compounds of the present disclosure were plotted using Prism GraphPad software, and the IC50 values were calculated therefrom.

CK1α = target: T1, CK1α (Homo sapiens, UniProt P48729+Q96SW2); experiment: Western-blot assay, substrate protein degradation in hPBMCs: CK1α; format: cell-based; conditions: for CK1α substrate protein remaining %: compounds at 50 nM and 500 nM, 24 hours; for substrate protein remaining % CK1α: 24 hours of compound treatment, 50 nM and 500 nM
T1 construct: effects of the compounds of the present disclosure on the expression of target proteins in cells; endogenous in cells; host or cells: human PBMCs (hPBMCs)

WEE1 = target: T2, WEE1 (Homo sapiens, UniProt P30291+Q96SW2); experiment: Western-blot assay, substrate protein degradation in hPBMCs: WEE1; format: cell-based; conditions: for WEE1 substrate protein remaining %: compounds at 50 nM and 500 nM, 24 hours; for substrate protein remaining % WEE1: 24 hours of compound treatment, 50 nM and 500 nM
T2 construct: effects of the compounds of the present disclosure on the expression of target proteins in cells; endogenous in cells; host or cells: human PBMCs (hPBMCs)
T2 sequence (P30291 whole entry): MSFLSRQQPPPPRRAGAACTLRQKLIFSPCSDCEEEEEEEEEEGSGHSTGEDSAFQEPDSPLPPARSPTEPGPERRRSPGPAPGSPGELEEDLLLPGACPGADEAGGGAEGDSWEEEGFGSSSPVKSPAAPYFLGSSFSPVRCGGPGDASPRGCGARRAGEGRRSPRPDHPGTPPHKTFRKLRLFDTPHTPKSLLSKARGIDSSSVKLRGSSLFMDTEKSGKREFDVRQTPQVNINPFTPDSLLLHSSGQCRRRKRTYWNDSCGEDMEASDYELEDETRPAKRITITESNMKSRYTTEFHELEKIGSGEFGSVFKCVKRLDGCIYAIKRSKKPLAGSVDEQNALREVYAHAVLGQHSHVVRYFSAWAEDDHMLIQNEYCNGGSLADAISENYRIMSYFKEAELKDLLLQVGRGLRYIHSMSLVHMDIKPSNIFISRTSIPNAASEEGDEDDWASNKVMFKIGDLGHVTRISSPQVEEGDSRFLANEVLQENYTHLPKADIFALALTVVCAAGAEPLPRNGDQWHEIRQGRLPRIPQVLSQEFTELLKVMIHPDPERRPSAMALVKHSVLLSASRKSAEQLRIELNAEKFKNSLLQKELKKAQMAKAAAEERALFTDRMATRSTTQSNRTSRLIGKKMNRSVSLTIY
T2 sequence (Q96SW2 whole entry): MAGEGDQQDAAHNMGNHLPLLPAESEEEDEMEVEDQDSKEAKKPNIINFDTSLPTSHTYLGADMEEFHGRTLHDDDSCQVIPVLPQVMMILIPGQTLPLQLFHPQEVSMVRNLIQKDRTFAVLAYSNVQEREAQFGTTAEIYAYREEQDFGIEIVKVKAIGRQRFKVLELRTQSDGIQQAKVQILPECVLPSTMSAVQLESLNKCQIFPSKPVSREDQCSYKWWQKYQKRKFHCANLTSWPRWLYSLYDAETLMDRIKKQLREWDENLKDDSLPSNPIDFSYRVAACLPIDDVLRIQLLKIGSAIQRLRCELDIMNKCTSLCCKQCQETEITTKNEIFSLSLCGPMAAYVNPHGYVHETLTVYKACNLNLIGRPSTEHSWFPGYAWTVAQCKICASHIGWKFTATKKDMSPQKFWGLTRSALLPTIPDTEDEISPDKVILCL
T2 sequence (Q16531 whole entry partner): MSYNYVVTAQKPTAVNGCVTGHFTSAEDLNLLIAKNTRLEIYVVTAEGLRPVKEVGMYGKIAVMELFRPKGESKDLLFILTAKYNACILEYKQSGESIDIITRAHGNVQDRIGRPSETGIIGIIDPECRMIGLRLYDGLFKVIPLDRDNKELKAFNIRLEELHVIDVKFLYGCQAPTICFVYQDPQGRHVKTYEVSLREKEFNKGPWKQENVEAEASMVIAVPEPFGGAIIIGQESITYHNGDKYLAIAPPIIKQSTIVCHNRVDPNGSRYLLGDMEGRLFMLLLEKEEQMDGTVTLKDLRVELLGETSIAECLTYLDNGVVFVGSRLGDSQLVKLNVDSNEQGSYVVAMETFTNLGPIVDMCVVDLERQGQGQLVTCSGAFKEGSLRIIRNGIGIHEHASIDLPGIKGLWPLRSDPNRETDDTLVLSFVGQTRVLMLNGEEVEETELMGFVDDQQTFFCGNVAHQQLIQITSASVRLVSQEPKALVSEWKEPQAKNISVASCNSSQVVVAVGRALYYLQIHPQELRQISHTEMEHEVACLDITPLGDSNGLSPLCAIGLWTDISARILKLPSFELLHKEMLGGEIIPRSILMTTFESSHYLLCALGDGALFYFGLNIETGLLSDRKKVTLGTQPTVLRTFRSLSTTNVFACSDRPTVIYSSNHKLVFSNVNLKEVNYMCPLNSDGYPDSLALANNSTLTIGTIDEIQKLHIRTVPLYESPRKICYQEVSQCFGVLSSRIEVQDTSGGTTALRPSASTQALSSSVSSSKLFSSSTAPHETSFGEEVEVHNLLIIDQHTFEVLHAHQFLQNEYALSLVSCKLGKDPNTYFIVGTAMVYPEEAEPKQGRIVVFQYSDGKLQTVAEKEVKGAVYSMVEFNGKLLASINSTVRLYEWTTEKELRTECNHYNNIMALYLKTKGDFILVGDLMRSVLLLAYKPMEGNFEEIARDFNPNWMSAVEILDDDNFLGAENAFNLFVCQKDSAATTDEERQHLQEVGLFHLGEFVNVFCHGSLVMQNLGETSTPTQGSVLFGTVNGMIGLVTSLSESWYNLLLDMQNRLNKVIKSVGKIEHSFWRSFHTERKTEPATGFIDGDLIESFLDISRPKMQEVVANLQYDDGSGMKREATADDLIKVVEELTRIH

IKZF3 = target: T3, IKZF3 (Homo sapiens, UniProt Q96SW2+Q9UKT9); experiment: Western-blot assay, substrate protein degradation in hPBMCs: IKZF3; format: cell-based; conditions: for IKZF3 substrate protein remaining %: compounds at 50 nM and 500 nM, 24 hours; for substrate protein remaining % IKZF3: 24 hours of compound treatment, 50 nM and 500 nM
T3 construct: effects of the compounds of the present disclosure on the expression of target proteins in cells; endogenous in cells; host or cells: human PBMCs (hPBMCs)
T3 sequence (Q9UKT9 whole entry): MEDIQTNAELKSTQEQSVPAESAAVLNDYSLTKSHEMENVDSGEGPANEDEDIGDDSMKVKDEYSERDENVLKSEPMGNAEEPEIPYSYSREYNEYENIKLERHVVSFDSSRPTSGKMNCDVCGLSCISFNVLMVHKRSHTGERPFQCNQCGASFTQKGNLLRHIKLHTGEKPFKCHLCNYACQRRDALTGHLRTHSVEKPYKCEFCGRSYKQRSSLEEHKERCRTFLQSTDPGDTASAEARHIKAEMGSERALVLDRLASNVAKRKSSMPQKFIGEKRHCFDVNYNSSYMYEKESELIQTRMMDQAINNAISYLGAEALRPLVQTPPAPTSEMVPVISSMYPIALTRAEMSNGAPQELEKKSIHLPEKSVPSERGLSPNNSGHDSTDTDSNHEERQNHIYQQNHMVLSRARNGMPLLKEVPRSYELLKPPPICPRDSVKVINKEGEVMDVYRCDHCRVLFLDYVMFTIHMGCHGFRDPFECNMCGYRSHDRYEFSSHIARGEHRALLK
T3 sequence (Q96SW2 whole entry): as the sequence (Q96SW2 whole entry) above
T3 sequence (Q16531 whole entry partner): as the sequence (Q16531 whole entry partner) above

GSPT1 = target: T4, GSPT1 (Homo sapiens, UniProt P15170+Q96SW2); experiment: Western-blot assay, substrate protein degradation in hPBMCs: GSPT1; format: cell-based; conditions: for GSPT1 substrate protein remaining %: compounds at 50 nM and 500 nM, 24 hours; for substrate protein remaining % GSPT1: 24 hours of compound treatment, 50 nM and 500 nM
T4 construct: effects of the compounds of the present disclosure on the expression of target proteins in cells; endogenous in cells; host or cells: human PBMCs (hPBMCs)
T4 sequence (P15170 whole entry): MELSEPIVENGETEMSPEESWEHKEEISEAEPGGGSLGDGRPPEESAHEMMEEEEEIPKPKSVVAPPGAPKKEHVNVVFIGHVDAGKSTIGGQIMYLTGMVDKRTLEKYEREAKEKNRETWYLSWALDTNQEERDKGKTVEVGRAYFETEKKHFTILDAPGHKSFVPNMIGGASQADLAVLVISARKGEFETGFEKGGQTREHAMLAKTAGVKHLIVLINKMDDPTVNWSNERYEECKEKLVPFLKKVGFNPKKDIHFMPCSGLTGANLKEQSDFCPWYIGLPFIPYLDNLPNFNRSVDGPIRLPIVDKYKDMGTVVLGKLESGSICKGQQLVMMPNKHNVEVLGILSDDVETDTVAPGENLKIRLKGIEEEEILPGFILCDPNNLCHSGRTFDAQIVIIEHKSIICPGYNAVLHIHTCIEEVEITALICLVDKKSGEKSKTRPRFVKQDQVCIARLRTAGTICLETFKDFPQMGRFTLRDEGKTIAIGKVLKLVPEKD
T4 sequence (Q96SW2 whole entry): as the sequence (Q96SW2 whole entry) above
T4 sequence (Q16531 whole entry partner): as the sequence (Q16531 whole entry partner) above

IKZF2 = target: T5, IKZF2 (Homo sapiens, UniProt Q96SW2+Q9UKS7); experiment: Western-blot assay, substrate protein degradation in hPBMCs: IKZF2; format: cell-based; conditions: for IKZF2 substrate protein remaining %: compounds at 50 nM and 500 nM, 24 hours; for substrate protein remaining % IKZF2: 24 hours of compound treatment, 50 nM and 500 nM
T5 construct: effects of the compounds of the present disclosure on the expression of target proteins in cells; endogenous in cells; host or cells: human PBMCs (hPBMCs)
T5 sequence (Q9UKS7 whole entry): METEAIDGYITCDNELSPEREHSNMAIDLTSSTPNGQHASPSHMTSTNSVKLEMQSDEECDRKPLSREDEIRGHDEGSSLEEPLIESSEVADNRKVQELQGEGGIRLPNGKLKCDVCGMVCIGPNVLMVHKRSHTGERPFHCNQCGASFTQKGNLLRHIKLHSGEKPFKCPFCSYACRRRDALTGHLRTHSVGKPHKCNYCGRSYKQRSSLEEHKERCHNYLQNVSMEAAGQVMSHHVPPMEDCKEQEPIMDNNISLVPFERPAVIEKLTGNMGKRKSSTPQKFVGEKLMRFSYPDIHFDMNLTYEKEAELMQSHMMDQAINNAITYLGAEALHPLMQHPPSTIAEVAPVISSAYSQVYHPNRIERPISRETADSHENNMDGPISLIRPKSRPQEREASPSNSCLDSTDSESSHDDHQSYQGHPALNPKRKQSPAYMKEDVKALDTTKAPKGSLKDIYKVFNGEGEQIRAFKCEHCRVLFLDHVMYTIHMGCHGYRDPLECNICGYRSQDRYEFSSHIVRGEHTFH
T5 sequence (Q96SW2 whole entry): as the sequence (Q96SW2 whole entry) above
T5 sequence (Q16531 whole entry partner): as the sequence (Q16531 whole entry partner) above

MM.1S = experiment: Cell viability assay (CellTiter-Meiluncell Luminescent), tumor cell proliferation, MM.1S; conditions: Homo sapiens, MM1.S, 96 h; for IC50: read-out: inhibitory activity (IC50, nM) against tumor cells proliferation, MM.1S; for inhibition at 0.01 µM: read-out: Inhibition Rate at 10 nM (%); for inhibition at 0.5 µM: read-out: Inhibition Rate at 500 nM (%)
IKZF1 = target: T6, IKZF1 (Homo sapiens, UniProt Q13422+Q96SW2); experiment: Western-blot assay, substrate protein degradation in hPBMCs: IKZF1; format: cell-based; conditions: for IKZF1 substrate protein remaining %: compounds at 50 nM and 500 nM, 24 hours; for substrate protein remaining % IKZF1: 24 hours of compound treatment, 50 nM and 500 nM
T6 construct: effects of the compounds of the present disclosure on the expression of target proteins in cells; endogenous in cells; host or cells: human PBMCs (hPBMCs)
T6 sequence (Q13422 whole entry): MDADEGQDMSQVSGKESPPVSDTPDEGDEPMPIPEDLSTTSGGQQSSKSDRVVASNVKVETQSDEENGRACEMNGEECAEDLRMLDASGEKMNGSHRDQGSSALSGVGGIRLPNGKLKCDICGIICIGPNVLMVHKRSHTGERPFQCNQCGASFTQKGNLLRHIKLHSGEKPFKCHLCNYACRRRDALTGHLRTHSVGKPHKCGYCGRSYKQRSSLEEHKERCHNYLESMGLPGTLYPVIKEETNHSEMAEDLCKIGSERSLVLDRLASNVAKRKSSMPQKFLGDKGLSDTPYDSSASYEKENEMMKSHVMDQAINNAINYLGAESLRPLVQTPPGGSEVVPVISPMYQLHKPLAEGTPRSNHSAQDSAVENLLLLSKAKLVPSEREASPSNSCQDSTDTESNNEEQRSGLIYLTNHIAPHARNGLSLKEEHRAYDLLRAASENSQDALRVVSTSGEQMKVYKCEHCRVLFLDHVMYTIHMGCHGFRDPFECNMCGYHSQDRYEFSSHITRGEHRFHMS
T6 sequence (Q96SW2 whole entry): as the sequence (Q96SW2 whole entry) above
T6 sequence (Q16531 whole entry partner): as the sequence (Q16531 whole entry partner) above

MV-4-11 = experiment: Cell viability assay (CellTiter-Meiluncell Luminescent), tumor cell proliferation, MV-4-11; conditions: Homo sapiens, MV4-11, 96 h; for IC50: read-out: inhibitory activity (IC50, nM) against tumor cells proliferation, MV-4-11; for inhibition at 0.01 µM: read-out: Inhibition Rate at 10 nM (%); for inhibition at 0.5 µM: read-out: Inhibition Rate at 500 nM (%)
MDA-MB-231 = experiment: Cell viability assay (CellTiter-Meiluncell Luminescent), tumor cell proliferation, MDA-MB-231; conditions: Homo sapiens, MDA-MB-231, 96 h; for inhibition at 0.01 µM: read-out: Inhibition Rate at 10 nM (%); for inhibition at 0.5 µM: read-out: Inhibition Rate at 500 nM (%)
H292 = experiment: Cell viability assay (CellTiter-Meiluncell Luminescent), tumor cell proliferation, H292; conditions: Homo sapiens, NCI-H292, 96 h; for inhibition at 0.01 µM: read-out: Inhibition Rate at 10 nM (%); for inhibition at 0.5 µM: read-out: Inhibition Rate at 500 nM (%)
H2228 = experiment: Cell viability assay (CellTiter-Meiluncell Luminescent), tumor cell proliferation, H2228; conditions: Homo sapiens, NCI-H2228, 96 h; for inhibition at 0.01 µM: read-out: Inhibition Rate at 10 nM (%); for inhibition at 0.5 µM: read-out: Inhibition Rate at 500 nM (%)

SMILES	IC50 (Jurkat) [nM]	CK1α substrate protein remaining % (CK1α)	WEE1 substrate protein remaining % (WEE1)	IKZF3 substrate protein remaining % (IKZF3)	GSPT1 substrate protein remaining % (GSPT1)	IKZF2 substrate protein remaining % (IKZF2)	IKZF1 substrate protein remaining % (IKZF1)	IC50 (MV-4-11) [nM]	also measured
O=C1CCN(N2Cc3cc(CN4CC=C(c5ccco5)CC4)ccc3C2=O)C(=O)N1 [GT-04874, 1-(5-((4-(furan-2-yl)-3,6-dihydropyridin-1(2H)-yl)methyl)-1-oxoisoindolin-2-yl)dihydropyrimidine-2,4(1H,3H)-dione]	500 to 1000	B ("B" is defined as 80%< substrate protein remaining %≤ 100%)	A ("A" is defined as 0% ≤ substrate protein remaining % ≤ 80%)	A ("A" is defined as 0% ≤ substrate protein remaining % ≤ 80%)	A ("A" is defined as 0% ≤ substrate protein remaining % ≤ 80%)	B ("B" is defined as 80%< substrate protein remaining %≤ 100%)	A ("A" is defined as 0% ≤ substrate protein remaining % ≤ 80%)	–	IC50 (MM.1S): 100 to 300 nM
Cc1cccc(N2CCN(Cc3ccc4c(c3)CN(N3CCC(=O)NC3=O)C4=O)CC2)c1 [GT-06770, 1-(1-oxo-5-((4-(m-tolyl)piperazin-1-yl)methyl)isoindolin-2-yl)dihydropyrimidine-2,4(1H,3H)-dione]	500 to 1000	A ("A" is defined as 0% ≤ substrate protein remaining % ≤ 80%)	A ("A" is defined as 0% ≤ substrate protein remaining % ≤ 80%)	A ("A" is defined as 0% ≤ substrate protein remaining % ≤ 80%)	A ("A" is defined as 0% ≤ substrate protein remaining % ≤ 80%)	A ("A" is defined as 0% ≤ substrate protein remaining % ≤ 80%)	A ("A" is defined as 0% ≤ substrate protein remaining % ≤ 80%)	500 to 1000	–
O=C1CCN(N2Cc3cc(CN4CCN(c5cc(Cl)cc(Cl)c5)CC4)ccc3C2=O)C(=O)N1 [GT-06776, 1-(5-((4-(3,5-dichlorophenyl)piperazin-1-yl)methyl)-1-oxoisoindolin-2-yl)dihydropyrimidine-2,4(1H,3H)-dione]	500 to 1000	A ("A" is defined as 0% ≤ substrate protein remaining % ≤ 80%)	A ("A" is defined as 0% ≤ substrate protein remaining % ≤ 80%)	B ("B" is defined as 80%< substrate protein remaining %≤ 100%)	A ("A" is defined as 0% ≤ substrate protein remaining % ≤ 80%)	A ("A" is defined as 0% ≤ substrate protein remaining % ≤ 80%)	B ("B" is defined as 80%< substrate protein remaining %≤ 100%)	100 to 300	–
O=C1CCN(N2Cc3cc(CN4CCC(c5cccc(Cl)c5Cl)CC4)ccc3C2=O)C(=O)N1 [GT-06893, 1-(5-((4-(2,3-dichlorophenyl)piperidin-1-yl)methyl)-1-oxoisoindolin-2-yl)dihydropyrimidine-2,4(1H,3H)-dione]	500 to 1000	B ("B" is defined as 80%< substrate protein remaining %≤ 100%)	B ("B" is defined as 80%< substrate protein remaining %≤ 100%)	B ("B" is defined as 80%< substrate protein remaining %≤ 100%)	A ("A" is defined as 0% ≤ substrate protein remaining % ≤ 80%)	A ("A" is defined as 0% ≤ substrate protein remaining % ≤ 80%)	A ("A" is defined as 0% ≤ substrate protein remaining % ≤ 80%)	100 to 300	–
O=C1CCN(N2Cc3cc(CN4CCC(c5cccc(F)c5Cl)CC4)ccc3C2=O)C(=O)N1 [GT-06894, 1-(5-((4-(2-chloro-3-fluorophenyl)piperidin-1-yl)methyl)-1-oxoisoindolin-2-yl)dihydropyrimidine-2,4(1H,3H)-dione]	500 to 1000	B ("B" is defined as 80%< substrate protein remaining %≤ 100%)	B ("B" is defined as 80%< substrate protein remaining %≤ 100%)	B ("B" is defined as 80%< substrate protein remaining %≤ 100%)	A ("A" is defined as 0% ≤ substrate protein remaining % ≤ 80%)	B ("B" is defined as 80%< substrate protein remaining %≤ 100%)	A ("A" is defined as 0% ≤ substrate protein remaining % ≤ 80%)	300 to 500	–
O=C1CCN(N2C(=O)c3ccc(CN4CCN(c5ncc(C(F)(F)F)cc5Cl)CC4)cc3C2=O)C(=O)N1 [GT-07026, 5-((4-(3-chloro-5-(trifluoromethyl)pyridin-2-yl)piperazin-1-yl)methyl)-2-(2,4-dioxotetrahydropyrimidin-1(2H)-yl)isoindoline-1,3-dione]	500 to 1000	B ("B" is defined as 80%< substrate protein remaining %≤ 100%)	A ("A" is defined as 0% ≤ substrate protein remaining % ≤ 80%)	B ("B" is defined as 80%< substrate protein remaining %≤ 100%)	A ("A" is defined as 0% ≤ substrate protein remaining % ≤ 80%)	B ("B" is defined as 80%< substrate protein remaining %≤ 100%)	B ("B" is defined as 80%< substrate protein remaining %≤ 100%)	–	–
O=C1CCN(N2Cc3cc(CN4CCN(C(c5cccc(F)c5)c5cccc(F)c5)CC4)ccc3C2=O)C(=O)N1 [GT-07293, 1-(5-((4-(bis(3-fluorophenyl)methyl)piperazin-1-yl)methyl)-1-oxoisoindolin-2-yl)dihydropyrimidine-2,4(1H,3H)-dione]	100 to 300	B ("B" is defined as 80%< substrate protein remaining %≤ 100%)	A ("A" is defined as 0% ≤ substrate protein remaining % ≤ 80%)	A ("A" is defined as 0% ≤ substrate protein remaining % ≤ 80%)	A ("A" is defined as 0% ≤ substrate protein remaining % ≤ 80%)	A ("A" is defined as 0% ≤ substrate protein remaining % ≤ 80%)	B ("B" is defined as 80%< substrate protein remaining %≤ 100%)	–	IC50 (MM.1S): 100 to 300 nM
O=C1CCN(N2C(=O)c3ccc(CN4CCN(c5ncnc6sccc56)CC4)cc3C2=O)C(=O)N1 [GT-08090, 2-(2,4-dioxotetrahydropyrimidin-1(2H)-yl)-5-((4-(thieno[2,3-d]pyrimidin-4-yl)piperazin-1-yl)methyl)isoindoline-1,3-dione]	–	–	–	–	–	–	–	–	inhibition at 0.01 µM (MV-4-11): 60 to 80%; inhibition at 0.5 µM (MV-4-11): 60 to 80%; substrate protein remaining % CK1α (CK1α): A (0% ≤ substrate protein remaining % ≤ 80%); inhibition at 0.01 µM (MDA-MB-231): 15 to 18%; inhibition at 0.5 µM (MDA-MB-231): 18 to 25%; inhibition at 0.01 µM (H292): 15 to 20%; inhibition at 0.5 µM (H292): 15 to 20%; substrate protein remaining % WEE1 (WEE1): A (0% ≤ substrate protein remaining % ≤ 80%); substrate protein remaining % IKZF3 (IKZF3): B (80%< substrate protein remaining %≤ 100%); substrate protein remaining % GSPT1 (GSPT1): A (0% ≤ substrate protein remaining % ≤ 80%); inhibition at 0.01 µM (H2228): 20 to 25%; inhibition at 0.5 µM (H2228): 20 to 25%; substrate protein remaining % IKZF2 (IKZF2): B (80%< substrate protein remaining %≤ 100%); inhibition at 0.01 µM (MM.1S): 30 to 42%; inhibition at 0.5 µM (MM.1S): 42 to 60%; substrate protein remaining % IKZF1 (IKZF1): B (80%< substrate protein remaining %≤ 100%)
O=C1CCN(N2Cc3cc(CN4CC=C(c5ncnc6sccc56)CC4)ccc3C2=O)C(=O)N1 [GT-08116, 1-(1-oxo-5-((4-(thieno[2,3-d]pyrimidin-4-yl)-3,6-dihydropyridin-1(2H)-yl)methyl)isoindolin-2-yl)dihydropyrimidine-2,4(1H,3H)-dione]	–	–	–	–	–	–	–	–	inhibition at 0.01 µM (MV-4-11): 40 to 60%; inhibition at 0.5 µM (MV-4-11): 80 to 100%; substrate protein remaining % CK1α (CK1α): A (0% ≤ substrate protein remaining % ≤ 80%); inhibition at 0.01 µM (MDA-MB-231): 25 to 40%; inhibition at 0.5 µM (MDA-MB-231): 25 to 40%; inhibition at 0.01 µM (H292): 15 to 20%; inhibition at 0.5 µM (H292): 15 to 20%; substrate protein remaining % WEE1 (WEE1): A (0% ≤ substrate protein remaining % ≤ 80%); substrate protein remaining % IKZF3 (IKZF3): A (0% ≤ substrate protein remaining % ≤ 80%); substrate protein remaining % GSPT1 (GSPT1): A (0% ≤ substrate protein remaining % ≤ 80%); inhibition at 0.01 µM (H2228): 15 to 20%; inhibition at 0.5 µM (H2228): 20 to 25%; substrate protein remaining % IKZF2 (IKZF2): B (80%< substrate protein remaining %≤ 100%); inhibition at 0.01 µM (MM.1S): 10 to 20%; inhibition at 0.5 µM (MM.1S): 60 to 80%; substrate protein remaining % IKZF1 (IKZF1): A (0% ≤ substrate protein remaining % ≤ 80%)
